Measured values published in patent US9150586B2, “Piperidino-dihydrothienopyrimidine sulfoxides and their use for treating COPD and asthma” (Boehringer Ingelheim International GmbH, priority 2011, dated 2015).
“Also recorded” adds a separate entry of the source. Each block holds one compound with its values, some of them ahead of it.

How the values were obtained:
[1] = system: LPS-induced neutrophil influx into bronchoalveolar lavage fluid; assay: LPS-induced lung inflammation model: inhibition of LPS-induced neutrophil influx into bronchoalveolar lavage fluid; assay type: in vivo, male Wistar rats; conditions: for ED50 (half-maximal effective dose), inhibition of LPS-induced neutrophil influx into BALF: male Wistar rats, oral by gavage, BALF 4 hours after end of LPS exposure, nonlinear fit; for ED50 found in efficacy studies in the rat (restated in dose table): p.o., LPS-induced neutrophil influx
Procedure: The anti-inflammatory activity of Examples 1 and 2 and of Prior art compounds A and D was assessed in an in vivo LPS-induced lung inflammation model in rats.
As a measure of the pharmacological potency of the above mentioned compounds the half-maximal effective dose (ED50) in regard to the inhibition of lipopolysaccharide-induced (LPS-induced) neutrophil influx into the bronchoalveolar lavage fluid (BALF) was determined by assessing the dose response relationship. Bacterial endotoxins (lipopolysaccharides [LPS]) are components of the outer bacterial cell membrane which play an important role in the pathogenesis of infections with gram-negative bacteria. It is known that inhalation of such aerosolized LPS induces a dose-dependent increase in neutrophils to lung tissues and airspaces in rats which may be detected by analyzing the amount of neutrophils in the bronchoalveolar lavage fluid (BALF). However, this dose-dependent increase of neutrophils in the BALF should be diminished in a dose-dependent way in the presence of an effective PDE4-inhibitor.
Male Wistar rats (HanWistar) from an approved local distributor were used for the experiments. The ordered weight of the animals was in the range of 200-250 g. Animals were fasted overnight before the experiment. A total number of 32 animals were used for each experiment. Eight animals (n=8) per dose were used for the treatment groups, […].
The animals of the LPS-control and of the negative control groups received“vehicle only” (“vehicle only” corresponds to 10 ml/kg body weight 0.5% Natrosol solution). The other groups were treated with the different doses of either Example compound 1, Example compound 2, Prior art compound A or Prior art compound D respectively (see Table D).
The amount of compound for the highest concentration tested for each compound was suspended in 10 ml 0.5% Natrosol (Hydroxyethylcellulose) solution and then diluted to the respective concentrations as shown in Table D. The respective compound suspension or “vehicle only” (10 ml/kg body weight 0.5% Natrosol solution) was administered orally by gavage. The resulting doses of the individual compounds corresponded to Table D:
One hour (0.5 hour for Prior art compound A and for Prior art compound D) after compound application (time set to allow for sufficient exposure as guided by prior pharmacokinetic experiments) the animals were exposed to nebulised/aerosolized LPS. The whole body exposure of 12 animals each was performed in a plexi glas chamber. Animals were separated/individualized with perforated metal plates. The aerosol was generated with a commercially available nebuliser (PARI Master+PARI LL nebuliser (Pari GmbH). The concentration of the nebulized LPS-solution was 1 mg/ml air. The duration of the LPS exposure was 30 minutes.
4 hours after the end of LPS exposure animals were anesthetised with Isoflorane and euthanised thereafter by cervical dislocation. The trachea was cannulated and BALF was performed using 2×5 mL lavage buffer (phosphate buffered saline (PBS)+2% BSA).
Determination of neutrophil content of the BALF was performed using an ADVIA 120 blood hemacytometer (Bayer Diagnostics). Neutrophil data were normalised (Positive Control (=LPS treatment alone)=100%, Negative Control (no LPS treatment, administration of “vehicle only”)=0%) and expressed as percent of LPS control. The ED50 was calculated using a nonlinear fit (with the Graph Pad Prism software and a sigmoidal dose response fit).
The ED50-value is the half-maximal effective dosis of the compound in question with respect to its inhibition of an LPS-induced neutrophil influx into BALF. Consequently a very small ED50-value stands for a good capability of the respective compound to prevent neutrophil influx into the lung tissue after LPS exposure and therefore for a good capacity of the respective compound to prevent inflammation of the lung tissue. […]

[2] = Gastric emptying and gastrointestinal transit in conscious rats (barium sulfate test meal); assay type: in vivo, Wistar rats; conditions: for intestinal transit versus negative control: doses up to 30-fold ED50 dose p.o.
Procedure: In order to evaluate whether the compounds of the present invention lead to gastrointestinal side effects the compounds of the invention have been administered to rats 30 minutes before the rats were fed with a test meal comprising barium sulfate. After that it was tested whether gastric emptying and/or gastrointestinal transit in these rats was affected by the presence of these compounds.
The effects of the compounds Example 1 and Example 2 on gastric emptying and gastrointestinal transit in conscious rats has been investigated as described below. Wistar rats of both sexes weighing 130-160 g (ages: male 7 wk, female 8 wk) were used. The animals are obtained from an approved local distributor, a minimum of four days quarantine is required before use, during which time the animals are maintained under routine animal care procedures. Groups of up to 5 animals are housed in cages in a room with controlled temperature and humidity and a light/dark cycle with the lights on from 6 a.m. to 6 p.m. The animals have access to normal rodent chow and water ad libitum. The animals are transported to the laboratory on the day of experimentation. Gastric emptying as well as small intestinal propulsion are determined using a barium sulfate test meal. Five rats Crl:WI(Han) of each sex (n=10) were used. The animals were deprived of food 17 h prior to the experiment but allowed free access to water.
The drug under investigation (drug was suspended to the concentration of 10 ml/kg body weight in 0.5% Natrosol solution) or the negative control (vehicle alone was given 10 ml/kg body weight) was administered 30 min. (p.o.) before the test meal at doses calculated to be 3-fold, 10-fold or 30-fold the ED50 found in efficacy studies in the rat.
The test meal (suspension of 7.5 g barium sulfate in 10 ml salt-free water) is given orally by gavage at a dose of 2 ml/100 g body weight. Thirty minutes after the administration of the test meal the animals were killed in deep isoflurane anaesthesia by cervical dislocation. The stomach and the intestine were then exposed by laparatomy and removed.
The removed stomach was weighed, then incised, the contents removed and the empty stomach is weighed again.
The length of gut traversed with barium sulfate in relation to the whole length of the gut is determined by direct measurements using a ruler.
The gastric content was calculated from the weight difference between the filled and empty stomach and normalized to 100 g body weight. Thus, an increase in weight difference indicated an impaired gastric emptying, whereas a decrease in weight difference indicated an enhanced gastric emptying.
The length of gut traversed with barium sulphate (as judged by visual inspection) in relation to the whole length of the gut (from the pylorus to the rectum) is determined by direct measurements using a ruler.
Intestinal transit is calculated as the percentage movement of barium sulphate in the intestine in relation to the whole length of the gut. Consequently an increased intestinal transit length indicated an accelerated intestinal transit whereas a decreased intestinal transit length indicated decelerated intestinal transit.
Data are expressed as mean±standard deviation (SD). For each dose, comparisons were performed using an analysis of variance (ANOVA) and a post hoc Dunnett test to compare the various groups to the controls when the ANOVA was significant. p<0.05 was considered significant.

[3] = all tested doses up to 30-fold ED50 dose p.o.

gastric emptying versus negative control ([2]; 3-fold ED50 dose p.o., 30 min before test meal): no relevant differences | gastric emptying versus negative control ([2]; 10-fold ED50 dose p.o., 30 min before test meal): no relevant differences
SMILES: [O-][S+]1CCc2nc(N3CCC(c4ccc(Cl)cc4)CC3)nc(NC3(CO)CCC3)c21 (single isomer, unassigned) [Example 1]
ED50 (half-maximal effective dose), inhibition of LPS-induced neutrophil influx into BALF [1]: 0.31 mg/kg body weight | ED50 found in efficacy studies in the rat (restated in dose table) [1]: (ED50 = 0.31 mg/kg BW | gastric emptying versus negative control ([2]; 30-fold ED50 dose p.o., 30 min before test meal): only a very moderate enhancement of the weight difference per body weight | gastric emptying versus negative control [2, 3]: neither showed a substantially enhanced or impaired gastric emptying | intestinal transit versus negative control [2]: nor a substantially accelerated or decelerated intestinal transit; also recorded: no significant differences

SMILES: [O-][S+]1CCc2nc(N3CCC(c4ncc(Cl)cn4)CC3)nc(NC3(CO)CCC3)c21 (single isomer, unassigned) [Example 2]
ED50 (half-maximal effective dose), inhibition of LPS-induced neutrophil influx into BALF [1]: 0.1 mg/kg body weight | ED50 found in efficacy studies in the rat (restated in dose table) [1]: (ED50 = 0.1 mg/kg BW | gastric emptying versus negative control [2, 3]: neither showed a substantially enhanced or impaired gastric emptying; also recorded: no relevant differences | intestinal transit versus negative control [2]: nor a substantially accelerated or decelerated intestinal transit; also recorded: no relevant differences

SMILES: [O-][S+]1CCc2nc(N3CCC(c4ccc(Cl)cc4)CC3)nc(NC3(CO)CC3)c21 (stereo not shown) [Prior art compound A, reference compound]
ED50 (half-maximal effective dose), inhibition of LPS-induced neutrophil influx into BALF [1]: 1.13 mg/kg body weight

SMILES: [O-][S+]1CCc2nc(N3CCC(c4cccc(Cl)c4)CC3)nc(NC3(CO)CC3)c21 (stereo not shown) [Prior art compound D, reference compound]
ED50 (half-maximal effective dose), inhibition of LPS-induced neutrophil influx into BALF [1]: 6.66 mg/kg body weight
